According to patent publication US20230286973A1, “PROTEIN SECRETION INHIBITORS” (KEZAR LIFE SCIENCES, priority 2020, published 2023):
Read-outs that look alike come from different tables or passages of the source.

Experiments:
[1] = Liver Microsome Stability Assay (mouse); conditions: mouse liver microsomes, with NADPH, 1.0 uM compound
Method: (§1) Stability of a compound was assessed in the presence of liver microsomes from various sources—mouse, rat, monkey and human liver microsomes. 1.0 uM compound, 0.4% DMSO in 0.1 M Potassium Phosphate with 1.0 mg/mL liver microsomes, were incubated at 37° C. with or without 1 mM NADPH. The samples were quenched at 0, and 30 minutes.

[2] = system: IL-2-FL/Gaussia Luciferase; test: Dox Induced IL2-FL-Gluc Assay; type: cell-based; conditions: for IC50: 24 hr Dox induction, 293FRT/TO cells, read-out: 24 hr Dox Inducible IL2FLGluc 293FRT/TO: Mean IC50; for 24 hr Dox Inducible IL2FLGluc 293FRT/TO: IL2/PD1: ratio of IL2FLGluc IC50 to PD1ssGluc IC50
Outline: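 Doxycycline induces an IL-2(1-153)–Gaussia luciferase fusion in a stable Flp-In 293 T-REx line. Compound exposure runs alongside induction at 37° C.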

[3] = Liver Microsome Stability Assay (rat); conditions: rat liver microsomes, with NADPH, 1.0 uM compound
Method: as §1

[4] = Liver Microsome Stability Assay (human); conditions: human liver microsomes, with NADPH, 1.0 uM compound
Method: as §1

[5] = system: multiple myeloma cell line U266B1; test: U266 Cell Viability Assay; type: cell-based, human; conditions: Homo sapiens, U-266, 48 h, U266B1 cells, Celltiter-Glo
Outline: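 Viability is measured as luciferase signal from CellTiter-Glo following a 48-hour incubation with compound at 37° C. under 5% CO2. Where structures lack drawn stereochemistry, values refer to stereoisomer mixtures.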

[6] = Liver Microsome Stability Assay (monkey); conditions: monkey liver microsomes, with NADPH, 1.0 uM compound
Method: as §1

[7] = system: PD1-ss+10aa/Gaussia Luciferase; test: Dox-Induced PD1-ss-Gluc Assay; type: cell-based; conditions: 24 hr Dox induction, 293FRT/TO cells, read-out: 24 hr Dox Inducible PD1ssGluc 293FRT/TO: Mean IC50
Outline: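 Stable Flp-In 293 T-REx cells carried a doxycycline-inducible construct of Gaussia luciferase fused to the PD1 signal sequence plus 10 amino acids. Cells were plated the day before, then treated with compound dilutions in DMSO/media containing doxycycline at 37 °C, 5% CO2.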

[8] = system: TNFα-FL/Gaussia Luciferase; test: Dox Induced TNFα-FL-Gluc Assay; type: cell-based; conditions: for IC50: 24 hr Dox induction, 293FRT/TO cells, read-out: 24 hr Dox Inducible TNFaFLGluc 293FRT/TO: Mean IC50; for 24 hr Dox Inducible TNFaFLGluc 293FRT/TO: TNF/PD1: ratio of TNFaFLGluc IC50 to PD1ssGluc IC50
Outline: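 Doxycycline-inducible Gaussia luciferase-tagged full-length TNFα (1-233) was expressed in stable Flp-In 293 T-REx cells. Compounds were co-added with doxycycline and incubated at 37 °C, 5% CO2.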

[9] = system: HER3-ss+4aa/Gaussia Luciferase; test: Dox-Induced Her3-ss-Gluc Assay; type: cell-based; conditions: 24 hr Dox induction, 293FRT/TO cells, read-out: 24 hr Dox Inducible Her3(ss + 4)Gluc 293FRT/TO: Mean IC50
From the text: Flp-In 293 T-REx™ cells were transfected with pcDNA™5/FRT/TO plasmid inserted with cDNA encoding Gaussia Luciferase fused to the 3′ end of cDNA encoding HER3 signal sequence plus 4 amino acids (N-[…]-C) (SEQ ID NO: 2). Transfected cells were selected for resistance to the selectable markers Hygromycin and Blasticidin to create a stable cell line that contained the HER3-ss+4aa/Gaussia Luciferase cDNA insert whose expression was regulated under the T-REx™ system. The day before assay, cells were trypsinized and plated in 384-well tissue culture plates. The next day, compound dilutions in DMSO/media containing doxycycline were added to the wells and incubated at 37° C., 5% CO2.
For chemical structures that include one or more stereoisomers, but are illustrated without indicating stereochemistry, the assay data refers to a mixture of stereoisomers.

[10] = system: multiple myeloma cell line NCI-H929; test: H929 Cell Viability Assay; type: cell-based, human; conditions: Homo sapiens, NCI-H929, 48 h, NCI-H929 cells, Celltiter-Glo
Outline: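 Viability is scored by CellTiter-Glo luminescence following a 48-hour treatment at 37° C. Data for structures shown without stereochemistry refer to stereoisomer mixtures.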

[11] = '<=>' given where both are I.A.

Liver Microsome Stability (Multiple Species): Mouse - % Remaining after 30 min w/NADPH [1] [%] | IC50 [2] [µM] | Liver Microsome Stability (Multiple Species): Rat - % Remaining after 30 min w/NADPH [3] [%] | Liver Microsome Stability (Multiple Species): Human - % Remaining after 30 min w/NADPH [4] [%] | EC50 [5] [µM] | Liver Microsome Stability (Multiple Species): Monkey - % Remaining after 30 min w/NADPH [6] [%] | IC50 [7] [µM] | IC50 [8] [µM] | IC50 [9] [µM] | EC50 [10] [µM] | IC50 ([2]; mean) [µM] | IC50 ([7]; mean) [µM] | IC50 ([8]; mean) [µM] | IC50 ([9]; mean) [µM] | SMILES | 24 hr Dox Inducible IL2FLGluc 293FRT/TO: IL2/PD1 [2] | 24 hr Dox Inducible TNFaFLGluc 293FRT/TO: TNF/PD1 [8] | 24 hr Dox Inducible IL2FLGluc 293FRT/TO: IL2/PD1 [2, 11] | 24 hr Dox Inducible TNFaFLGluc 293FRT/TO: TNF/PD1 [8, 11]
20.2 | 0.00133 | 34 | 36.4 | > 25 | 10.7 | 0.00036 | 0.0059 | 0.00081 | 0.0159 |  |  |  |  | COC(=O)Nc1ccc(N2CCC[C@@H]2c2csc(NC(=O)c3cccn3Cc3ccnc(F)c3)n2)cc1 [Compound A144, methyl (R)-(4-(2-(2-(1-((2-fluoropyridin-4-yl)methyl)-1H-pyrrole-2-carboxamido)thiazol-4-yl)pyrrolidin-1-yl)phenyl)carbamate] | 3.7 | 16.3 |  | 
49.1 |  | 62.1 | 96.7 | > 25 | 70.3 |  |  |  | > 25 | 1.94 | 0.782 | 16.5 | 1.54 | O=C(Nc1nc([C@H]2CCCN2c2ccccc2)cs1)c1cccn1CCCCc1nnn[nH]1 [Compound C4, (R)-1-(4-(1H-tetrazol-5-yl)butyl)-N-(4-(1-phenylpyrrolidin-2-yl)thiazol-2-yl)-1H-pyrrole-2-carboxamide] |  |  | 2.5 | 21.1
6.7 | > 25 | 1.43 | 0.21 | > 25 | 0.27 | 5.38 | > 25 | > 25 | > 25 |  |  |  |  | Cc1nc(/C=C/c2csc(NC(=O)c3cccn3Cc3ccncc3)n2)cn1C [Compound B51, (E)-N-(4-(2-(1,2-dimethyl-1H-imidazol-4-yl)vinyl)thiazol-2-yl)-1-(pyridin-4-ylmethyl)-1H-pyrrole-2-carboxamide] | >4.6 | >4.65 |  | 
0.16 |  | 3.4 | 0.27 | > 25 | 0.03 |  |  |  | > 25 | 16.7 | 8.96 | > 25 | 20.4 | CN(C)C(=O)CCCn1cccc1C(=O)Nc1nc([C@H]2CCCN2c2ccccc2)cs1 [Compound C61, (R)-1-(4-(dimethylamino)-4-oxobutyl)-N-(4-(1-phenylpyrrolidin-2-yl)thiazol-2-yl)-1H-pyrrole-2-carboxamide] |  |  | 1.9 | >2.79
3.3 |  | 0.79 | 0.21 | > 25 | 0.09 |  |  |  | 24.9 | 3.94 | 1.02 | 7.08 | 3.06 | O=C(Nc1nc([C@H]2C[C@@H](OCCO)CN2c2ccccc2)cs1)c1cccn1Cc1ccncc1 [Compound E32] |  |  | 3.9 | 6.91
16.9 | 0.189 | 8.23 | 1.07 | > 25 | 0.17 | 0.08 | 1.34 | 0.0866 | 2.86 |  |  |  |  | CC(=O)N1CCC(Oc2ccc(N3CCC[C@@H]3c3csc(NC(=O)c4cccn4Cc4ccnc(F)c4)n3)cn2)CC1 [Compound A155, (R)-N-(4-(1-(6-((1-acetylpiperidin-4-yl)oxy)pyridin-3-yl)pyrrolidin-2-yl)thiazol-2-yl)-1-((2-fluoropyridin-4-yl)methyl)-1H-pyrrole-2-carboxamide] | 2.4 | 16.8 |  | 
54.8 |  | 30 | 34.8 | > 25 | 12.9 |  |  |  | 14 | 1.16 | 0.665 | 4.99 | 1.34 | CC(=O)N1CCC(Oc2ccc(N3CCC[C@@H]3c3csc(NC(=O)c4cccn4CC4CCOCC4)n3)cc2)CC1 [Compound C103, (R)-N-(4-(1-(4-((1-acetylpiperidin-4-yl)oxy)phenyl)pyrrolidin-2-yl)thiazol-2-yl)-1-((tetrahydro-2H-pyran-4-yl)methyl)-1H-pyrrole-2-carboxamide] |  |  | 1.7 | 7.5
12.5 | > 25 | 17 | 0.27 | 16.7 | 0.11 | 0.104 | > 25 | 23.2 | 16.5 |  |  |  |  | O=C(Nc1nc(/C=C/c2ncn3c2CCCC3)cs1)c1cccn1Cc1ccnc(F)c1 [Compound B86, (E)-1-((2-fluoropyridin-4-yl)methyl)-N-(4-(2-(5,6,7,8-tetrahydroimidazo[1,5-a]pyridin-1-yl)vinyl)thiazol-2-yl)-1H-pyrrole-2-carboxamide] | >240 | >239 |  | 
